One molecule from PMC9917099, “The Mycotoxin Patulin Inhibits the Mitochondrial Carnitine/Acylcarnitine Carrier (SLC25A20) by Interaction with Cys136 Implications for Human Health” (International Journal of Molecular Sciences, 2023) can be followed below.

This test has as its target T1, CAC in intact rat liver mitochondria (Rattus norvegicus, UniProt P97521).
T1 construct: the native protein extracted from rat liver mitochondria; from tissue; host or cells: rat liver mitochondria (Triton X-100 extract)
T1 sequence (P97521 1-301): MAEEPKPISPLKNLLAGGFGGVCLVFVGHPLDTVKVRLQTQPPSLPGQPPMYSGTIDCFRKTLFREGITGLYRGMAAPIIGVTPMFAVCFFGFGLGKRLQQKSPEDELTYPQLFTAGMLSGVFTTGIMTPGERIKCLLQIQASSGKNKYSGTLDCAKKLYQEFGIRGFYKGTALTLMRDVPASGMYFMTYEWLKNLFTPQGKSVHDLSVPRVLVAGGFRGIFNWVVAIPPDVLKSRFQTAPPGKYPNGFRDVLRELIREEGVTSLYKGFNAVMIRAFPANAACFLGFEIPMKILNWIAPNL
The test can be described thus: Treatment of intact rat liver mitochondria, then solubilization, reconstitution in proteoliposomes and carnitine antiport assay. The test is classed as biochemical. Particulars: GSH alone, 5 mM, 60 min, intact mitochondria. On the procedure: Figure 1 Effect of Patulin on the native carnitine/acylcarnitine carrier (CAC). (A) Dose-response analysis of proteoliposomes reconstituted with the CAC extracted from rat liver mitochondria (0.3 mg of total proteins) and incubated with PAT at the indicated concentrations for 30 min, before measuring the transport activity by adding 0.1 mM [^3H] carnitine for 10 min as described in Materials and Methods. The percentage of residual activity compared to control, without PAT treatment, is reported. The values are the means ± SD from three independent experiments. (B) Rat liver mitochondria (5 mg/100 μL) were incubated or not (control) for 60 min, with Patulin (60 μM) or GSH (5 mM) as indicated. Upon treatment, the unreacted drug was removed by washing the mitochondria in PBS 1X and then 0.3 mg mitochondria were solubilized by 3% TX-100, 10 mM PIPES pH 7.0 and reconstituted in proteoliposomes for transport assay as indicated in (A) and Materials and Methods. Black and white bars indicate without or with the addition of 5 mM dithioerythritol (DTE) 1 min before the transport assay to aliquots of each sample.
The effect of PAT on the CAC at 60 µM concentration was also detected in intact rat liver mitochondria. Upon treatment (60 min), the mitochondria were solubilized in Triton X-100 and 0.3 mg of mitochondrial extract were reconstituted in proteoliposomes for testing the transport activity of CAC (see above). […] Aliquots of intact mitochondria incubated with PAT were treated also with reduced GSH to verify whether this physiological SH-reducing agent was able to reverse the mycotoxin-protein interactions.
The recombinant CAC proteins were reconstituted in proteoliposomes as previously described. Rat liver mitochondria after purification, using the standard procedure of cell disruption and differential centrifugation were solubilized with 3% Triton X-100 in a PIPES buffer (10 mM) at pH 7.0. Herein, the mitochondrial extract (0.3 mg) were reconstituted in the liposomes as above described for the mitochondrial CAC recombinant protein, in the absence of reducing agents. The concentration of intraliposomal carnitine was 15 mM in all samples.
For the transport assay, 550 μL of proteoliposomes were passed through a Sephadex G-75 column in order to remove the external substrate. Six hundred μL of the turbid eluate were collected, divided into samples of 100 μL each, and used for transport measurement by the inhibitor-stop method. Transport was started as homoexchange by adding 0.1 mM [^3H]-carnitine to proteoliposomes containing 15 mM carnitine and, at the indicated time interval, stopped by 1.5 mM NEM (N-ethylmaleimide). The inhibitor was added together with the labelled substrate at time zero in the control samples. After finishing the transport reaction, the external radiolabel substrate was removed by gel filtration chromatography (Sephadex G-75), and the intraliposomal radioactivity was measured by liquid scintillation. Transport was measured at 25 °C. The experimental values were corrected by subtracting the controls. Transport rates were measured in 10 min, i.e., within the initial linear range of the time course.

Turning to `N[C@@H](CCC(=O)N[C@@H](CS)C(=O)NCC(=O)O)C(=O)O` [GSH, glutathione, reference compound], the “transport activity compared to control” value is reported as “moderate increase”.
